How the values were obtained:
[1] = system: benzodiazepine binding site; settings: Tallman et al., 1978; cited from earlier work
GABAa receptor subtype = assay: Drug screening assay: displacement of 3H-Compound 1 from rat cortical tissue (novel GABAa receptor subtype); format: binding; settings: Table I; 0.5 nM 3H-Compound 1, rat cortical tissue, 20 min at 4° C., buffer with 1 uM Ro 15-1788 and 10 uM muscimol; Ki by Cheng Prusoff
Description: The methods for screening drug compounds of the invention using the novel GABAa receptor are illustrated by the following assays for GABAa receptor subtype activity.
Assays were carried out using the tissue preparation described in Thomas and Tallman (J. Bio. Chem. 156: 9838-9842, 1983, J. Neurosci 3: 433-440, 1983). Rat cortical tissue was dissected and homogenized in 25 volumes (w/v) of 0.05M Tris HCl buffer (pH 7.4 at 4° C.). The tissue homogenate was centrifuged in the cold (4°) at 20,000×g for 20'. The supernatant was decanted and the pellet was rehomogenized in the same volume of buffer and again centrifuged at 20,000×g. The supernatant was decanted and the pellet was frozen at -20° C. overnight. The pellet was then thawed and rehomogenized in 25 volume (original wt/vol) of buffer and the procedure was carried out twice. The pellet was finally resuspended in 50 volumes (w/vol of 0.05M Tris HCl buffer containing 1 uM Ro 15-1788. 1 uM sodium ascorbate and 10 uM muscimol (pH 7.4 at 4° C.).
Incubation mixtures contained 400 μl of tissue homogenate. 5μl of 100 nM ligand in above buffer [final ligand concentration was 0.5 nM ^3 H-Compound 1 (specific activity 67 Ci/mmol)], drug or blocker and buffer to a total volume of 1 ml. Incubations were carried for 20 min at 4° C. then were rapidly filtered through GFB filters to separate free and bound ligand. Filters were washed twice with fresh 0.05M Tris HCl buffer (pH 7.4 at 4° C.) and counted in a liquid scintillation counter. 10 μM Compound 3 was added to some tubes to determine nonspecific binding. Data were collected in triplicate determinations, averaged and % inhibition of total specific binding was calculated. Total Specific Binding=Total-Nonspecific. Typically the specific binding represented about 75 to 85% of total binding. In some cases, the amounts of unlabeled drugs was varied and total displacement curves of binding were carried out. Data were convened to a form suitable for the calculation of IC50 and Hill Coefficient (nH). These IC 50's were convened to Ki's using the Cheng Prusoff equation (Cheng and Prussoff, 1973, Biochem. Pharmacol. 22: 3099.).

known GABAa receptors = settings: Table II, no method given; cited from earlier work

SMILES	effect on benzodiazepine binding / on its enhancement by GABA agonists (in words) [1]	Ki (GABAa receptor subtype)	Ki (known GABAa receptors)
CN1CCc2cc3c(cc2C1C1OC(=O)c2c1ccc1c2OCO1)OCO3 (single isomer, unassigned; (+)) [(+) bicuculline]	blocked		
CN1CCc2cc3c(cc2C1C1OC(=O)c2c1ccc1c2OCO1)OCO3 (single isomer, unassigned; (-)) [(-) bicuculline]	much less active		
Cc1nnc2n1-c1ccc(Cl)cc1C(c1ccccc1)=NC2 [Alprazelam]		8000 nM	
CC(C)(C)OC(=O)c1ncn2c1[C@@H]1CCCN1C(=O)c1c(Br)cccc1-2 [Bretazenil]		15000 nM	1 nM
CCOc1ccc(-n2c(=O)c3c[nH]c4ccccc4n-3c2=O)cc1 [Compound 1, 2-(4-Ethoxyphenyl)imidazo[1,5.a]quinoxaline-1,3(2H,5H)-dione]		0.5 nM	
COc1ccc(F)c(-c2ncc3[nH]c4c(c3n2)CCCC4)c1 [Compound 2, 2-(2-Fluoro-5-methoxyphenyl)-6,7,g,9-tetrahydro-5H-indolo[3,2-d]-pyrimidine]		3.9 nM	
CCCOc1ccc(-n2c(=O)c3c[nH]c4ccccc4n-3c2=O)cc1 [Compound 3, 2-(4-Propyloxyphenyl)imidazo[1,5,a]quinoxaline-1,3(2H,5H)-dione]		0.9 nM	
CCOc1ccc(-n2c(=O)c3c[nH]c4cc(C)ccc4n-3c2=O)cc1 [Compound 4, 2-(4-Ethoxyphenyl)-7-methyl-imidazo[1,5,a]quinoxaline-1,3(2H,5H)-dione]		0.5 nM	
CCOc1ccc(-n2c(=O)c3cn(C)c4ccccc4n-3c2=O)cc1 [Compound 5, 2-(4-Ethoxyphenyl)-5-methyl-imidazo[1,5,a]quinoxaline-1,3(2H,5H)-dione]		6 nM	
COc1cccc(-n2c(=O)c3c[nH]c4ccccc4n-3c2=O)c1 [Compound 6, 2-(3-Methoxyphenyl)imidazo[1,5.a]quinoxaline-1,3(2H,5. H)-dione]		0.55 nM	
COc1cccc(-c2ncc3[nH]c4c(c3n2)CCCC4)c1 [Compound 7, 2-(3-Methoxyphenyl)-6,7,8,9-tetrahydro-5H-indolo[3.2-d]-pyrimidine]		50 nM	
CN1C(=O)CN=C(c2ccccc2)c2cc(Cl)ccc21 [Diazepam]		5000 nM	6 nM
CCOC(=O)c1ncn2c1CN(C)C(=O)c1cc(F)ccc1-2 [Flumazenil]		7500 nM	1 nM
NCCCC(=O)O [GABA, γ-Aminobutyric acid]	enhance the binding of benzodiazepines		
Cc1ccc(-c2nc3ccc(C)cn3c2CC(=O)N(C)C)cc1 [Zolpidem]		2200 nM	20 nM
